# Experimental data: US20100098633A1, “SELECTIVE SEPRASE INHIBITORS” (Molecular Insight Pharmaceuticals, Inc., priority 2008, published 2010)
# Biological target: T1, recombinant human seprase (rhFAP) (Homo sapiens, UniProt Q12884)
# T1 sequence (Q12884 26-760 limits assumed): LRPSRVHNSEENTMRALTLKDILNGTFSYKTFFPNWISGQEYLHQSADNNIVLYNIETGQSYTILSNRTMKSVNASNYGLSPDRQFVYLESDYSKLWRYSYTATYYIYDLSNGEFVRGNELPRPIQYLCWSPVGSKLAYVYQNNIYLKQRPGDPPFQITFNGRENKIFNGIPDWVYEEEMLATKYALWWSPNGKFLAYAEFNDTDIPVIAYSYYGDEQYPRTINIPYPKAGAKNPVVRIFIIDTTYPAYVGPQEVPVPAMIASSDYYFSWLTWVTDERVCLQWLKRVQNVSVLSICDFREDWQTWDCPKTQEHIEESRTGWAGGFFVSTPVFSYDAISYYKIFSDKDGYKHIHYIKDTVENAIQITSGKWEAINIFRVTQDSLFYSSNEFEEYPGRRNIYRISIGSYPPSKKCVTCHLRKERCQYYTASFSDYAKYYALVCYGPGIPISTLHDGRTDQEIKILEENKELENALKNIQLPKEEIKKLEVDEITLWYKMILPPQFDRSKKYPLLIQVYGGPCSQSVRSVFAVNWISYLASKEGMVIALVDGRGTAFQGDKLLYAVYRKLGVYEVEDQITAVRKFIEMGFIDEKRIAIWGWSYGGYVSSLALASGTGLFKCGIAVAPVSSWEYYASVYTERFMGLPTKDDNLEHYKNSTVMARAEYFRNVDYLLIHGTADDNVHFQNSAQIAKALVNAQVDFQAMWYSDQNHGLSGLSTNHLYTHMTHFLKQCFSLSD
# Assay: Inhibition of enzymatic activity of recombinant human seprase on Z-Gly-Pro-AMC (fluorescence)
# Assay type: biochemical
# Conditions: for IC50: in vitro data against seprase, read-out: FAP (IC50 nM); for remaining activity at 0.005 µM / remaining activity at 0.05 µM / remaining activity at 0.5 µM / remaining activity at 5 µM / remaining activity at 500 µM / Percent of Control: initial velocity normalized to control without test compound, 50 μM Z-Gly-Pro-AMC; for remaining activity at 0.005 µM / remaining activity at 0.05 µM / remaining activity at 0.5 µM / remaining activity at 5 µM / remaining activity at 500 µM: read-out: Percent of Control
# Procedure: In vitro assaying of compounds for inhibition of dipeptidyl peptidase activity of seprase and DPP-IV can be achieved following the described in Edosada C. Y. et al. J. Biolog. Chem. 2006, 281, 7437-7444.
# Selected test compounds were examined for their ability to inhibit the enzymatic activity of recombinant human seprase (rhFAP) on the substrate, benzyloxycarbonyl-Gly-Pro-7-amido-4-methylcoumarin (Z-Gly-Pro-AMC). In brief, 10 μg rhFAP was added to 50 μM Z-Gly-Pro-AMC in the presence of increasing concentrations of test compound, and enzymatic activity was determined by monitoring fluorescence (Ex. 355 nm/Em. 460 nm). Compound 1051 is the known inhibitor, Cbz-Gly-boroproline. Initial velocity of the reaction was calculated and normalized to control reactions conducted in the absence of test compound.
# The inhibition was measured by the half maximal inhibitory concentration (IC50) of a compound of interest. The IC50 indicates how much of a particular compound is needed to inhibit seprase by half.
Compound,IC50 [nM],further results
"N#C[C@@H]1CCCN1C(=O)CNC(=O)c1cc(I)cc(C(=O)O)c1 [Compound 1045, (S)-3-(2-(2-cyanopyrrolidin-1-yl)-2-oxoethylcarbamoyl)-5-iodobenzoic acid]",1440,
Re(CO)3[1-(2-(6-(bis(pyridin-2-ylmethyl)amino)hexanamido) acetyl)pyrrolidin-2-ylboronic acid] [Compound 1014],21,
"O=C(CN1CCN(Cc2cccc(I)c2)CC1)N1CCCC1B(O)O (stereo not drawn) [Compound 1036, 1-(2-(4-(3-iodobenzyl)piperazin-1-yl)acetyl)pyrrolidin-2-ylboronic acid]",37,
"O=C(NCC(=O)N1CCCC1B(O)O)c1ccc2cc(I)ccc2c1 (stereo not drawn) [Compound 1030, 1-(2-(6-iodo-2-naphthamido)acetyl)pyrrolidin-2-ylboronic acid]",2,IC50 values against seprase (in words): low nanomolar range
"N#C[C@@H]1CCCN1C(=O)CNCc1cccc(I)c1 [Compound 1049, (S)-1-(2-(3-iodobenzylamino)acetyl)pyrrolidine-2-carbonitrile]",953,
"Re(CO)3-2,2′-(2,2′-(6-(2-(2-boronopyrrolidin-1-yl)-2-oxoethylamino)-6-oxohexyl azanediyl)bis(methylene)bis(1H-imidazole-2,1-diyl))diacetic acid [Compound 1020]",4,
"O=C(NCC(=O)N1CCCC1B(O)O)c1cc(I)ccn1 (stereo not drawn) [Compound 1033, 1-(2-(4-iodopicolinamido)acetyl)pyrrolidin-2-ylboronic acid]",500,
"N#C[C@@H]1CCCN1C(=O)CNC(=O)c1cccc(I)c1 [Compound 1040, (S)-N-(2-(2-cyanopyrrolidin-1-yl)-2-oxoethyl)-3-iodobenzamide]",35,IC50 values against seprase (in words): low nanomolar range
"O=C(NCC(=O)N1CCCC1B(O)O)Nc1ccc(I)cc1 (stereo not drawn) [Compound 1034, 1-(2-(3-(4-iodophenyl)ureido)acetyl)pyrrolidin-2-ylboronic acid]",11,
"O=C(NCC(=O)N1CCCC1B(O)O)c1cc(I)ccc1Br (stereo not drawn) [Compound 1028, 1-(2-(2-bromo-5-iodobenzamido)acetyl)pyrrolidin-2-ylboronic acid]",5,
"Cc1ccc(I)cc1C(=O)NCC(=O)N1CCCC1B(O)O (stereo not drawn) [Compound 1032, 1-(2-(5-iodo-2-methylbenzamido)acetyl)pyrrolidin-2-ylboronic acid]",11,
"O=C(NCC(=O)N1CCCC1B(O)O)c1cccc(I)c1 (stereo not drawn) [Compound 1025, 1-(2-(3-iodobenzamido)acetyl)pyrrolidin-2-ylboronic acid]",2,remaining activity at 0.005 µM (inhibitor 0.005 μM): 0%; remaining activity at 0.05 µM (inhibitor 0.05 μM): 0%; remaining activity at 0.5 µM (inhibitor 0.5 μM): 0%; remaining activity at 5 µM (inhibitor 5 μM): 0%; remaining activity at 500 µM (inhibitor 500 μM): 0%
"O=C(NCC(=O)N1CCCC1B(O)O)c1ccc(I)cc1Cl (stereo not drawn) [Compound 1026, 1-(2-(2-chloro-4-iodobenzamido)acetyl)pyrrolidin-2-ylboronic acid]",3,
Re(CO)3[1-(6-(bis(pyridin-2-ylmethyl)amino)hexanoyl)pyrrolidin-2-ylboronic acid] [Compound 1010],2540,Percent of Control (inhibitor 0.005 μM): 90%; Percent of Control (inhibitor 0.05 μM): 95%; Percent of Control (inhibitor 0.5 μM): 82%; Percent of Control (inhibitor 5 μM): 26%; Percent of Control (inhibitor 50 μM): 0%; Percent of Control (inhibitor 500 μM): 0%
"O=C(NCC(=O)N1CCCC1B(O)O)OCc1ccccc1 (stereo not drawn) [Compound 1051, Cbz-Gly-boroproline, reference compound]",67,remaining activity at 0.005 µM (inhibitor 0.005 μM): 81%; remaining activity at 0.05 µM (inhibitor 0.05 μM): 46%; remaining activity at 0.5 µM (inhibitor 0.5 μM): 1%; remaining activity at 5 µM (inhibitor 5 μM): 0%; remaining activity at 500 µM (inhibitor 500 μM): 0%
"N#Cc1ccc(I)cc1C(=O)NCC(=O)N1CCC[C@H]1C#N [Compound 1044, (S)-2-cyano-N-(2-(2-cyanopyrrolidin-1-yl)-2-oxoethyl)-5-iodobenzamide]",23700,

Compound,IC50 [nM],further results
"N#C[C@@H]1CCCN1C(=O)CNC(=O)c1ccccc1I [Compound 1043, (S)—N-(2-(2-cyanopyrrolidin-1-yl)-2-oxoethyl)-2-iodobenzamide]",115,
"O=C(NCC(=O)N1CCCC1B(O)O)c1cc(I)ccc1F (stereo not drawn) [Compound 1029, 1-(2-(2-fluoro-5-iodobenzamido)acetyl)pyrrolidin-2-ylboronic acid]",8,
"N#C[C@@H]1CCCN1C(=O)CN1CCN(Cc2cccc(I)c2)CC1 [Compound 1050, (S)-1-(2-(4-(3-iodobenzyl)piperazin-1-yl)acetyl)pyrrolidine-2-carbonitrile]",1150,
"O=C(NCC(=O)N1CCCC1B(O)O)c1ccc(I)cc1 (stereo not drawn) [Compound 1024, 1-(2-(4-iodobenzamido)acetyl)pyrrolidin-2-ylboronic acid]",3,IC50 values against seprase (in words): low nanomolar range; remaining activity at 0.005 µM (inhibitor 0.005 μM): 22%; remaining activity at 0.05 µM (inhibitor 0.05 μM): 0%; remaining activity at 0.5 µM (inhibitor 0.5 μM): 0%; remaining activity at 5 µM (inhibitor 5 μM): 0%; remaining activity at 500 µM (inhibitor 500 μM): 0%
Re(CO)3[2-((6-(2-(2-boronopyrrolidin-1-yl)-2-oxoethylamino)-6-oxohexyl)(pyridin-2-ylmethyl)amino)acetic acid] [Compound 1016],3530,
"N#C[C@@H]1CCCN1C(=O)CNC(=O)c1ccc(I)cc1 [Compound 1039, (S)-N-(2-(2-cyanopyrrolidin-1-yl)-2-oxoethyl)-4-iodobenzamide]",511,
"O=C(NCC(=O)N1CCCC1B(O)O)c1ccccc1I (stereo not drawn) [Compound 1023, 1-(2-(2-iodobenzamido)acetyl)pyrrolidin-2-ylboronic acid]",7,remaining activity at 0.005 µM (inhibitor 0.005 μM): 42%; remaining activity at 0.05 µM (inhibitor 0.05 μM): 0%; remaining activity at 0.5 µM (inhibitor 0.5 μM): 0%; remaining activity at 5 µM (inhibitor 5 μM): 0%; remaining activity at 500 µM (inhibitor 500 μM): 0%
"O=C(NCC(=O)N1CCCC1B(O)O)c1cc(I)ccc1Cl (stereo not drawn) [Compound 1027, 1-(2-(2-chloro-5-iodobenzamido)acetyl)pyrrolidin-2-ylboronic acid]",5,
"N#C[C@@H]1CCCN1C(=O)CNC(=O)c1cc(I)ccc1Cl [Compound 1042, (S)-2-chloro-N-(2-(2-cyanopyrrolidin-1-yl)-2-oxoethyl)-5-iodobenzamide]",785,
"Re(CO)3-(S)-2,2′-(2,2′-(6-(2-(2-cyanopyrrolidin-1-yl)-2-oxoethylamino)-6-oxohexylazanediyl)bis(methylene)bis(1H-imidazole-2,1-diyl))diacetic acid [Compound 1022]",236,
"N#Cc1ccc(I)cc1C(=O)NCC(=O)N1CCCC1B(O)O (stereo not drawn) [Compound 1031, 1-(2-(2-cyano-5-iodobenzamido)acetyl)pyrrolidin-2-ylboronic acid]",262,
"NC(Cc1ccc(I)cc1)C(=O)NCC(=O)N1CCCC1B(O)O (stereo not drawn) [Compound 1035, 1-(2-(2-amino-3-(4-iodophenyl)propanamido)acetyl)pyrrolidin-2-ylboronic acid]",340,
NC(Cc1ccc(I)cc1)C(=O)NCC(=O)N1CCCC1N (stereo not drawn) [Compound 1061],24500,
"N#C[C@@H]1CCCN1C(=O)CNC(=O)[C@@H](CC(=O)O)NC(=O)c1cccc(I)c1 [Compound 1048, (R)-4-(2-((S)-2-cyanopyrrolidin-1-yl)-2-oxoethylamino)-3-(3-iodobenzamido)-4-oxobutanoic acid]",7410,
"N#C[C@H]1CCCN1C(=O)CNC(=O)c1cccc(I)c1 [Compound 1046, (R)-N-(2-(2-cyanopyrrolidin-1-yl)-2-oxoethyl)-3-iodobenzamide]",970,
